Results as given in US20070116820A1, “EDIBLE GEL COMPOSITIONS COMPRISING HIGH-POTENCY SWEETENERS” (THE COCA-COLA COMPANY, priority 2005, published 2007).

What was measured:
[1] = Rate of dissolution of rebaudioside A polymorph and amorphous forms in H2O at 25° C.; format: physicochemical
[2] = format: physicochemical
Experimental: A solution of rebaudioside A (>97% pure by HPLC ) was prepared in double distilled water (12.5 gm in 50 mL, 25% concentration) by stirring the mixture at 40° C. for 5 minutes. An amorphous form of rebaudioside A was formed by immediately using the clear solution for spray drying with the Lab-Plant spray drier SD-04 instrument (Lab-Plant Ltd., West Yorkshire, U.K.). The solution was fed through the feed pump into the nozzle atomizer which atomized it into a spray of droplets with the help of a constant flow of nitrogen/air. […] This dry powder (11-12 g, H2O 6.74%) was discharged continuously from the drying chamber and was collected in a bottle.

| Rate of dissolution in H2O at 25° C. ([1]; per 5 minutes) | solubility in water at room temperature [2] | Rate of dissolution in H2O at 25° C. ([1]; per 60 minutes) | Substance |
| --- | --- | --- | --- |
| (<30%/ %/5 minutes | – | – | rebaudioside A [Form 2] |
| High (>35.0%/ %/5 minutes | > 35.0% | – | rebaudioside A [Form 4] |
| – | – | (<0.2%/ %/60 minutes | rebaudioside A [Form 1] |
| High (>30%/ %/5 minutes | – | – | rebaudioside A [Form 3] |
